{"source": "paper PMC12814364", "about": "(Journal of the American Chemical Society, 2025)", "key": {"HBHA110–199 [1]": {"target": "T1, HBHA110–199 (Mycobacterium tuberculosis, UniProt P9WIP9)", "assay": "ITC binding of HS hexadecasaccharides with HBHA110–199"}, "HBHA110–199 [2]": {"target": "T1, HBHA110–199", "type": "binding"}, "full-length HBHA": {"target": "T2, full-length HBHA (Mycobacterium tuberculosis, UniProt P9WIP9)", "T2 sequence (P9WIP9 1-199)": "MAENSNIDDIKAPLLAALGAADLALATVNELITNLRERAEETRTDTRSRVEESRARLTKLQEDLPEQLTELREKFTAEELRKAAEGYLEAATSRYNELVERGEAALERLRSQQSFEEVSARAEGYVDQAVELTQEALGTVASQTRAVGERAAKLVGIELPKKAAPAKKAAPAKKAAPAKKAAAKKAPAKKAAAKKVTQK", "assay": "Far-UV circular dichroism of full-length HBHA with added sugar"}, "HBHA110–199 [3]": {"target": "T1, HBHA110–199", "assay": "Circular dichroism of HBHA110–199 with added sugar", "conditions": "data not shown"}}, "note": "Like-named read-outs stand apart in the source and are kept apart here."}
{"smiles": "O=C(O)[C@@H]1O[C@@H](O[C@H]2[C@H](O)[C@@H](NS(=O)(=O)O)[C@@H](O[C@H]3[C@H](O)[C@@H](OS(=O)(=O)O)[C@H]4OC[C@@H]3O4)O[C@@H]2COS(=O)(=O)O)[C@H](OS(=O)(=O)O)[C@@H](O)[C@@H]1O[C@H]1O[C@H](COS(=O)(=O)O)[C@@H](O[C@@H]2O[C@@H](C(=O)O)[C@@H](O[C@H]3O[C@H](COS(=O)(=O)O)[C@@H](O[C@@H]4O[C@@H](C(=O)O)[C@@H](O[C@H]5O[C@H](COS(=O)(=O)O)[C@@H](O[C@@H]6O[C@@H](C(=O)O)[C@@H](O[C@H]7O[C@H](COS(=O)(=O)O)[C@@H](O[C@@H]8O[C@@H](C(=O)O)[C@@H](O[C@H]9O[C@H](COS(=O)(=O)O)[C@@H](O[C@@H]%10O[C@@H](C(=O)O)[C@@H](O[C@H]%11O[C@H](COS(=O)(=O)O)[C@@H](O[C@@H]%12O[C@@H](C(=O)O)[C@@H](O[C@H]%13O[C@H](COS(=O)(=O)O)[C@@H](O)[C@H](O)[C@H]%13NS(=O)(=O)O)[C@H](O)[C@H]%12OS(=O)(=O)O)[C@H](O)[C@H]%11NS(=O)(=O)O)[C@H](O)[C@H]%10OS(=O)(=O)O)[C@H](O)[C@H]9NS(=O)(=O)O)[C@H](O)[C@H]8OS(=O)(=O)O)[C@H](O)[C@H]7NS(=O)(=O)O)[C@H](O)[C@H]6OS(=O)(=O)O)[C@H](O)[C@H]5NS(=O)(=O)O)[C@H](O)[C@H]4OS(=O)(=O)O)[C@H](O)[C@H]3NS(=O)(=O)O)[C@H](O)[C@H]2OS(=O)(=O)O)[C@H](O)[C@H]1NS(=O)(=O)O", "note": "[compound 24]", "values": [{"measurement": "n (sugar-to-protein binding ratio)", "setting": "HBHA110–199 [1]; 25 °C, Tris buffer pH 7.6", "value": "0.27 ± 0.01"}, {"measurement": "ΔG", "setting": "HBHA110–199 [1]; 25 °C, Tris buffer pH 7.6", "value": "–7.82 ± 0.02 kcal/mol"}, {"measurement": "ΔH", "setting": "HBHA110–199 [1]; 25 °C, Tris buffer pH 7.6", "value": "16.00 ± 0.00", "unit": "kcal/mol"}, {"measurement": "–TΔS", "setting": "HBHA110–199 [1]; 25 °C, Tris buffer pH 7.6", "value": "–23.85 ± 0.08 kcal/mol"}, {"measurement": "Kd", "setting": "HBHA110–199 [1]; Tris buffer pH 7.6, 25 °C, two trials, average ± standard deviation, read-out: dissociation constant, KD", "value": "1.87 ± 0.06", "unit": "µM"}, {"measurement": "Kd", "setting": "HBHA110–199 [2]; Average of Repeat I P(KKAA), residue 160-164, read-out: Dissociation constant from NMR cross-peak movement, average", "value": 8.7, "unit": "µM"}, {"measurement": "Kd", "setting": "HBHA110–199 [2]; Average of Repeat II P(AKKAA), residue 165-170, read-out: Dissociation constant from NMR cross-peak movement, average", "value": 3.2, "unit": "µM"}, {"measurement": "Kd", "setting": "HBHA110–199 [2]; Average of Repeat III P(AKKAA), residue 171-176, read-out: Dissociation constant from NMR cross-peak movement, average", "value": 2.9, "unit": "µM"}, {"measurement": "Kd", "setting": "HBHA110–199 [2]; Average of Repeat IV P([…]), residue 177-186, read-out: Dissociation constant from NMR cross-peak movement, average", "value": 1.4, "unit": "µM"}, {"measurement": "Kd", "setting": "HBHA110–199 [2]; Average of Repeat V P([…]), residue 187-196, read-out: Dissociation constant from NMR cross-peak movement, average", "value": 1.6, "unit": "µM"}, {"measurement": "Kd", "setting": "HBHA110–199 [2]; from NMR cross-peak movement, read-out: average KD in the most perturbed region (residues 178–199)", "value": 1.5, "unit": "µM"}, {"measurement": "average Δδresidue (weighted chemical shift deviation) of HBHA110–199", "setting": "HBHA110–199 [2]; protein-to-sugar molar ratio 1:2, all residues", "value": 0.035, "unit": "ppm"}, {"measurement": "Kd", "setting": "HBHA110–199 [2]; residue A163, Repeat I, read-out: Dissociation constant from NMR cross-peak movement", "value": 9.5, "unit": "µM"}, {"measurement": "Kd", "setting": "HBHA110–199 [2]; residue A164, Repeat I, read-out: Dissociation constant from NMR cross-peak movement", "value": 5.4, "unit": "µM"}, {"measurement": "Kd", "setting": "HBHA110–199 [2]; residue A166, Repeat II, read-out: Dissociation constant from NMR cross-peak movement", "value": 3.2, "unit": "µM"}, {"measurement": "Kd", "setting": "HBHA110–199 [2]; residue A169, Repeat II, read-out: Dissociation constant from NMR cross-peak movement", "value": 5.5, "unit": "µM"}, {"measurement": "Kd", "setting": "HBHA110–199 [2]; residue A170, Repeat II, read-out: Dissociation constant from NMR cross-peak movement", "value": 2.5, "unit": "µM"}, {"measurement": "Kd", "setting": "HBHA110–199 [2]; residue A172, Repeat III, read-out: Dissociation constant from NMR cross-peak movement", "value": 2.2, "unit": "µM"}, {"measurement": "Kd", "setting": "HBHA110–199 [2]; residue A175, Repeat III, read-out: Dissociation constant from NMR cross-peak movement", "value": 2.3, "unit": "µM"}, {"measurement": "Kd", "setting": "HBHA110–199 [2]; residue A176, Repeat III, read-out: Dissociation constant from NMR cross-peak movement", "value": 1.4, "unit": "µM"}, {"measurement": "Kd", "setting": "HBHA110–199 [2]; residue A178, Repeat IV, read-out: Dissociation constant from NMR cross-peak movement", "value": 0.8, "unit": "µM"}, {"measurement": "Kd", "setting": "HBHA110–199 [2]; residue A181, Repeat IV, read-out: Dissociation constant from NMR cross-peak movement", "value": 1.4, "unit": "µM"}, {"measurement": "Kd", "setting": "HBHA110–199 [2]; residue A182, Repeat IV, read-out: Dissociation constant from NMR cross-peak movement", "value": 1, "unit": "µM"}, {"measurement": "Kd", "setting": "HBHA110–199 [2]; residue A183, Repeat IV, read-out: Dissociation constant from NMR cross-peak movement", "value": 0.7, "unit": "µM"}, {"measurement": "Kd", "setting": "HBHA110–199 [2]; residue A186, Repeat IV, read-out: Dissociation constant from NMR cross-peak movement", "value": 0.8, "unit": "µM"}, {"measurement": "Kd", "setting": "HBHA110–199 [2]; residue A188, Repeat V, read-out: Dissociation constant from NMR cross-peak movement", "value": 0.8, "unit": "µM"}, {"measurement": "Kd", "setting": "HBHA110–199 [2]; residue A191, Repeat V, read-out: Dissociation constant from NMR cross-peak movement", "value": 1.5, "unit": "µM"}, {"measurement": "Kd", "setting": "HBHA110–199 [2]; residue A192, Repeat V, read-out: Dissociation constant from NMR cross-peak movement", "value": 2.1, "unit": "µM"}, {"measurement": "Kd", "setting": "HBHA110–199 [2]; residue A193, Repeat V, read-out: Dissociation constant from NMR cross-peak movement", "value": 1, "unit": "µM"}, {"measurement": "Kd", "setting": "HBHA110–199 [2]; residue K161, Repeat I, read-out: Dissociation constant from NMR cross-peak movement", "value": 12.9, "unit": "µM"}, {"measurement": "Kd", "setting": "HBHA110–199 [2]; residue K162, Repeat I, read-out: Dissociation constant from NMR cross-peak movement", "value": 6.8, "unit": "µM"}, {"measurement": "Kd", "setting": "HBHA110–199 [2]; residue K167, Repeat II, read-out: Dissociation constant from NMR cross-peak movement", "value": 1.7, "unit": "µM"}, {"measurement": "Kd", "setting": "HBHA110–199 [2]; residue K168, Repeat II, read-out: Dissociation constant from NMR cross-peak movement", "value": 3.2, "unit": "µM"}, {"measurement": "Kd", "setting": "HBHA110–199 [2]; residue K173, Repeat III, read-out: Dissociation constant from NMR cross-peak movement", "value": 1.7, "unit": "µM"}, {"measurement": "Kd", "setting": "HBHA110–199 [2]; residue K174, Repeat III, read-out: Dissociation constant from NMR cross-peak movement", "value": 6.7, "unit": "µM"}, {"measurement": "Kd", "setting": "HBHA110–199 [2]; residue K179, Repeat IV, read-out: Dissociation constant from NMR cross-peak movement", "value": 1.3, "unit": "µM"}, {"measurement": "Kd", "setting": "HBHA110–199 [2]; residue K190, Repeat V, read-out: Dissociation constant from NMR cross-peak movement", "value": 1.2, "unit": "µM"}, {"measurement": "Kd", "setting": "HBHA110–199 [2]; residue K194, Repeat V, read-out: Dissociation constant from NMR cross-peak movement", "value": 1.1, "unit": "µM"}, {"measurement": "Kd", "setting": "HBHA110–199 [2]; residue K195, Repeat V, read-out: Dissociation constant from NMR cross-peak movement", "value": 2.9, "unit": "µM"}, {"measurement": "Kd", "setting": "HBHA110–199 [2]; residue V196, Repeat V, read-out: Dissociation constant from NMR cross-peak movement", "value": 2.3, "unit": "µM"}, {"measurement": "random coil of full-length HBHA", "setting": "full-length HBHA; HBHA:compound 1:0.5", "value": 52.4, "unit": "%"}, {"measurement": "β-sheet of full-length HBHA", "setting": "full-length HBHA; HBHA:compound 1:0.5", "value": 24.0, "unit": "%"}, {"measurement": "α-helix of full-length HBHA", "setting": "full-length HBHA; HBHA:compound 1:0.5, far-UV CD 195–260 nm", "value": 23.6, "unit": "%"}, {"measurement": "random coil of full-length HBHA", "setting": "full-length HBHA; HBHA:compound 1:1", "value": 51.9, "unit": "%"}, {"measurement": "α-helix of full-length HBHA", "setting": "full-length HBHA; HBHA:compound 1:1", "value": 24.9, "unit": "%"}, {"measurement": "β-sheet of full-length HBHA", "setting": "full-length HBHA; HBHA:compound 1:1", "value": 23.2, "unit": "%"}, {"measurement": "random coil of full-length HBHA", "setting": "full-length HBHA; HBHA:compound 1:1.5", "value": 52.2, "unit": "%"}, {"measurement": "α-helix of full-length HBHA", "setting": "full-length HBHA; HBHA:compound 1:1.5", "value": 24.4, "unit": "%"}, {"measurement": "β-sheet of full-length HBHA", "setting": "full-length HBHA; HBHA:compound 1:1.5", "value": 23.4, "unit": "%"}, {"measurement": "increase in α-helical content of bound HBHA", "setting": "full-length HBHA; estimated by Dichroweb, roughly 16 residues", "value": "approximately 8%"}, {"measurement": "changes in CD spectra of HBHA110–199", "setting": "HBHA110–199 [3]", "value": "no noteworthy changes"}]}
